# Data from article PMC9501633, “Synthesis, Characterisation and Mechanism of Action of Anticancer 3-Fluoroazetidin-2-ones” (Pharmaceuticals, 2022).
# Experiments:
# Assay in all cases: AlamarBlue cell viability assay
# Type in all cases: cell-based
# Hs578T cells = conditions: Homo sapiens, Hs-578T
# Procedure: (§1) The potent 3-fluoro-β-lactam compound 33 synthesised was also evaluated in the triple-negative MDA-MB-231 cell line which lacks expression of the estrogen and progesterone receptors (ER/PR) and the HER2 receptor. […]. Compound 32 was also evaluated in the triple-negative breast cancer cell line Hs578T and its isogenic subclone Hs578T(i)8 (Figure 4C). Hs578Ts(i)8 cells have 2.5-fold more migratory capacity and 3-fold more invasive capacity through the extracellular matrix than the parental cell line (Hs578T) and have 30% more CD44+/CD24-/low cells and in vivo proliferation. […]. The human breast carcinoma cell lines MCF-7 and MDA-MB-231 were purchased from the European Collection of Animal Cell Cultures (ECACC, Salisbury, UK). The SW-480 cells were a kind gift from Dr. Brian Flood, School of Biochemistry and Immunology, Trinity College Dublin. The human breast tumour cell line MCF-7 was cultured in Eagles minimum essential medium with 10% foetal bovine serum, 2 mM L-glutamine and 100 μg/mL penicillin/streptomycin. The medium was supplemented with 1% non-essential amino acids. The human breast tumour cell line MDA-MB-231 cells were maintained in Dulbecco’s modified Eagle’s medium (DMEM) with the addition of penicillin/streptomycin (100 µg/mL), 10% (v/v) foetal bovine serum and 2 mM L-glutamine (complete medium). Breast cancer cell line Hs578T and its isogenic subclone Hs578T(i)8 were a kind gift from Dr. Susan McDonnell, School of Chemical and Bioprocess Engineering, University College Dublin. SW-480 cells, triple-negative breast cancer Hs578T cells and invasive variant Hs578T8i cells were cultured in DMEM with GlutaMAX-I, with the same supplement in the absence of non-essential amino acids. HEK-293T cells (normal epithelial embryonic kidney cells) were cultured in DMEM with GlutaMAX-I in the absence of non-essential amino acids. The SW-480 cells were cultured in DMEM with GlutaMAX-I, with the same supplement in the absence of non-essential amino acids. All media contained 100 U/mL penicillin and 100 μg/mL streptomycin. The cells were seeded into pre-warmed complete medium (10 × 10^4 cells/mL) and maintained at a cell density of 2–19 × 10^5 cells /mL by the addition of fresh media. The cell number was monitored using a haemocytometer. Cells were maintained at 37 °C in 5% CO2 in a humidified incubator. […]
# (§2) Figure 4 Antiproliferative activity of 3-fluoro β-lactams on MCF-7, MDA-MB-231, Hs578T and Hs578T isogenic subclone Hs578T(i)8 breast cancer cells and non-tumourigenic HEK-293T cells. […] Cell viability was expressed as a percentage of vehicle control (ethanol 1% (v/v))-treated cells. […] Cell viability was expressed as a percentage of vehicle control (ethanol 1% (v/v))-treated cells and was measured by AlamarBlue assay (average of three independent experiments). […]
# Hs578Ts(i)8 cells = system: Hs578Ts(i)8 cells
# Procedure: as §1, §2
# [1] = system: MCF-7 human breast cancer cells; conditions: Homo sapiens, MCF7, 72 h
# Procedure: The antiproliferative potential of the synthesised 3-fluoro β-lactams 26–35 and 3,3-difluoro β-lactams 36–45 was evaluated in MCF-7 human breast cancer cells using the AlamarBlue assay, with CA-4 as reference compound (Figure 3). […] The results for the preliminary in vitro antiproliferative screen for 3-fluoro β-lactam compounds (26–29), which contain different substituents at the para position in the B ring, are presented in Figure 3A.
# Cells were seeded at a density of 5 × 10^3 cells/well (MCF-7 and MDA-MB-231) and 1 × 10^4 cells/well (HEK-293T) in 96-well plates (200 μL per well). After 24 h, cells were then treated with medium alone, with vehicle (1% ethanol (v/v)) or with CA-4 or β-lactam compounds at 1 μM and 10 μM concentrations. […] Cell proliferation for MCF-7 cells was analysed with the AlamarBlue assay (Invitrogen Corp.) as previously described by us. After 72 h, AlamarBlue (10% (v/v)) was added to each well, and plates were incubated for 3–5 h at 37 °C in the dark. Fluorescence results were obtained with a 96-well fluorimeter with excitation at 530 nm and emission at 590 nm with results recorded as percentage viability relative to vehicle control (100%). Dose–response curves were obtained and IC50 values (concentration of drug resulting in 50% reduction in cell survival) were calculated using Prism (GraphPad Software, Inc., La Jolla, CA, USA).
# Figure 3 Preliminary cell viability data for 3-fluoro and 3,3-difluoro β-lactam compounds. (A) 3-Fluoro β-lactam compounds containing different para-substituent ring B 26–29; 3-fluoro β-lactam compounds containing different meta-substituent ring B 30, 32–35; (B) 3-difluoro β-lactam compounds containing different para-substituent ring B 36–39; 3-difluoro β-lactam compounds containing different meta-substituent ring B 40, 42–45 in MCF-7 breast cancer cells. Cell proliferation of MCF-7 cells was determined with an AlamarBlue assay (seeding density […] for 96-well plates). Compound concentrations of either 10 μM or 1 μM for 72 h were used to treat the cells with control wells containing vehicle ethanol (1% v/v) and CA-4 (10 μM and 1 μM). The mean value for three experiments is shown with the ± S.E.M. for three independent experiments.
structure (smiles),measurement,setting,value
"COc1ccc(C2C(F)C(=O)N2c2cc(OC)c(OC)c(OC)c2)cc1O (stereo not shown) [Compound 32, 3-Fluoro-4-(3-hydroxy-4-methoxyphenyl)-1-(3,4,5-trimethoxyphenyl)azetidin-2-one]",IC50,Hs578T cells,33 nM
same,IC50,Hs578Ts(i)8 cells,65 nM
same,viability at 1 µM,"[1]; MCF-7, 1 μM, 72 h, read-out: viable cells remaining",30%
same,IC50,"[1]; MCF-7, 72 h",75 nM
